# Data from US20230159442A1, “CELLULAR ENERGY COMPOUNDS, COMPOSITIONS, AND METHODS OF USE THEREOF” (priority 2021, published 2023).
# Read-outs that look alike come from different tables or passages of the source.
# Legend:
# [1] = tested on: Calu-3 (human airway epithelial cell line) host cells; type: cell-based
# [2] = tested on: T cells; type: cell-based, human; conditions: T cells with T2 cells, Spike peptide […]; vs media alone
# [3] = tested on: Madin Darby canine kidney (MDCK) monolayers; assay: Flux per hour in MDCK monolayers (contemplated); type: in vitro ADME
# Description: […]. […] […].
# [4] = tested on: Calu-3 (human airway epithelial cell line) host cells; type: cell-based; remark: listed apart in the source
# [5] = Saturated aqueous solubility determination; conditions: for solubility at 1.5 h: deionized water, 25 °C, water, thermodynamic from solid; for Ratio (relative to CM): solubility relative to creatine monohydrate
# Protocol: After 1.5 hour, the saturated solutions were vortexed and 2-ml aliquots removed and centrifuged in microcentrifuge tubes at 11,000 rpm for 5 min. Concentrations were analyzed by HPLC by diluting 500 μL of supernatant with mobile phase (500 μL). The mean±standard deviation of the saturation solubility for each antiviral therapeutic compound is calculated from the corresponding standard curves.
# [6] = tested on: Caco-2 monolayers; conditions: cited from earlier work
compound,measurement,setting,value
ethyl (α-guanido-methyl) ethanoate [Alpha-GEE],reduction of CXCL2 expression,[1],~70%
same,release of IFNg from T cells,[2],increased over the control
CCCCCCCCCCCC(=O)OCC(COC(=O)CCCCCCCCCCC)OC(=O)CN(C)C(=N)N [creatine glycerol laurate ester],flux per hour relative to creatine monohydrate,[3],at least double
CN(CC(=O)O)C(=N)N.Cl [creatine hydrochloride],reduction of CXCL2 expression,[4],25 to 30%
same,reduction of TNF expression,[4],about 25%
same,reduction of TNF expression,[1],slightly reduces
same,release of IFNg from T cells,[2],increased over the control
C[N+](C)(C)CC(=O)OC1CCCC1.[Br-] [betaine cyclopentyl ester],IL-1β expression as percent of the expression when no compound is present,[4],less than 20%
same,IL-6 expression as percent of the expression when no compound is present,[4],less than 55%
same,TNF expression as percent of the expression when no compound is present,[4],less than 20%
same,reduction of IL-6 expression,[4],about 60%
same,reduction of TNF expression,[4],about 45%
same,solubility at 1.5 h,[5],> 600 mg/mL
same,aqueous solubility compared with betaine hydrochloride,[5]; not shown,significantly greater than betaine hydrochloride
same,Ratio (relative to CM),[5],>29
same,reduction of TNF expression,[1],slightly reduces
same,release of IFNg from T cells,[2],increased over the control
CCCCCCCCCCCC(=O)OC(C)COC(=O)CN(C)C(=N)N (stereo not shown) [creatine propylene glycol laurate ester],flux per hour relative to creatine monohydrate,[3],at least double
CC(C)CCOC(=O)CN(C)C(=N)N.Cl [creatine isopentyl ester],solubility at 1.5 h,[5],> 600 mg/mL
same,Ratio (relative to CM),[5],>29
same,IL-1β expression as percent of the expression when no compound is present,[1],less than 35%
same,release of IFNg from T cells,[2],increased over the control
"CN(CC(=O)O)C(=N)N.O [creatine monohydrate, reference compound]",apparent permeability coefficient,[6],about 0.12±0.004 10^−6 cm/s
CN(CC(=O)OC1CCCCC1)C(=N)N.Cc1ccc(S(=O)(=O)O)cc1 [creatine cyclohexyl ester],solubility at 1.5 h,[5],15 to 20 mg/mL
same,Ratio (relative to CM),[5],0.71
same,flux per hour relative to creatine monohydrate,[3],at least double
same,IL-1β expression as percent of the expression when no compound is present,[1],less than 20%
same,IL-6 expression as percent of the expression when no compound is present,[1],less than 30%
same,release of IFNg from T cells,[2],increased over the control
CCOC(=O)CN(C)C(=N)N.Cl [creatine ethyl ester hydrochloride],solubility at 1.5 h,[5],> 200 mg/mL
same,permeability relative to creatine monohydrate,[6],15 fold
